Four molecules from patent US7332504B2, “Heterocyclic substituted aminoazacycles useful as central nervous system agents” (Abbott Laboratories, priority 1999, dated 2008) can be followed below.

Series [1] concerns the target T1, neuronal nicotinic acetylcholine receptors (Rattus norvegicus, UniProt P09483+P12390).
T1 construct: crude synaptic membrane preparations from whole rat brain; from tissue; host or cells: whole rat brain, crude synaptic membranes
Nature of the series: Binding of [3H]-cytisine to neuronal nicotinic acetylcholine receptors, crude synaptic membranes from whole rat brain. The protocol:
The In Vitro protocols for determination of nicotinic acetylcholine channel receptor binding potencies of ligands were determined as follows.
Binding of [^3H]-cytisine ([^3 H]-CYT) to neuronal nicotinic acetylcholine receptors was accomplished using crude synaptic membrane preparations from whole rat brain (Pabreza et al., Molecular Pharmacol., 1990, 39:9). Washed membranes were stored at —80° C. prior to use. Frozen aliquots were slowly thawed and resuspended in 20 volumes of buffer (containing: 120 mM NaCl, 5 mM KCl, 2 mM MgCl2, 2 mM CaCl2 and 50 mM Tris-Cl, pH 7.4 @4° C.). After centrifuging at 20,000×g for 15 minutes, the pellets were resuspended in 30 volumes of buffer.
The test compounds were dissolved in water to make 10 mM stock solutions. Each solution was then diluted (1:100) with buffer (as above) and further taken through seven serial log dilutions of produce test solution from 10^−5 to 10^−11 M.
Homogenate (containing 125-150 μg protein) was added to triplicate tubes containing the range of concentrations of test compound described above and [^3H]-CYT (1.25 nM) in a final volume of 500 μL. Samples were incubated for 60 minutes at 4° C., then rapidly filtered through Whatman GF/B filters presoaked in 0.5% polyethyleneimine using 3×4 mL of ice-cold buffer. The filter are counted in 4 mL of Ecolume® (ICN). Nonspecific binding was determined in the presence of 10 μM (−)-nicotine and values were expressed as a percentage of total binding. IC50 values were determined with the RS-1 (BBN) nonlinear least squares curve-fitting program and IC50 values were converted to Ki values using the Cheng and Prusoff correction ([…].

A further series relates to mouse hot plate paradigm. Nature of the series: Mouse hot plate paradigm (analgesia). It is filed as in vivo. The conditions noted are these: ip, 0.5 h, mice, intraperitoneal, dosed 30 minutes prior to testing, hot plate 55° C., increase in tenth jump latency relative to control, read-out: minimally effective dose (MED). The protocol:
An in vivo protocol was utilized to determine the effectiveness of nicotinic acetylcholine receptor ligands as analgesic agents in the mouse hot plate paradigm.
Separate groups of mice, (n=8/group) were utilized for each dose group. All drugs were administered by the intraperitoneal route of administration. Test drugs were dissolved in water to make a 6.2 mM stock solution. Animals were dosed with this solution (10 mL/kg body weight) for a 62 micromol/kg dose. Lower doses were administered similarly, following serial dilution of the stock solution in half-log increments. Animals were dosed 30 minutes prior to testing in the hot plate. The hot-plate utilized was an automated analgesia monitor (Model #AHP16AN, Omnitech Electronics, Inc. of Columbus, Ohio). The temperature of the hot plate was maintained at 55° C. and a cut-off time of 180 seconds was utilized. Latency until the tenth jump was recoreded as the dependent measure. An increase in the tenth jump latency relative to the control was considered an effect.

Counter-ions that a name gives are not always drawn.

T1 sequence (P09483 31-630): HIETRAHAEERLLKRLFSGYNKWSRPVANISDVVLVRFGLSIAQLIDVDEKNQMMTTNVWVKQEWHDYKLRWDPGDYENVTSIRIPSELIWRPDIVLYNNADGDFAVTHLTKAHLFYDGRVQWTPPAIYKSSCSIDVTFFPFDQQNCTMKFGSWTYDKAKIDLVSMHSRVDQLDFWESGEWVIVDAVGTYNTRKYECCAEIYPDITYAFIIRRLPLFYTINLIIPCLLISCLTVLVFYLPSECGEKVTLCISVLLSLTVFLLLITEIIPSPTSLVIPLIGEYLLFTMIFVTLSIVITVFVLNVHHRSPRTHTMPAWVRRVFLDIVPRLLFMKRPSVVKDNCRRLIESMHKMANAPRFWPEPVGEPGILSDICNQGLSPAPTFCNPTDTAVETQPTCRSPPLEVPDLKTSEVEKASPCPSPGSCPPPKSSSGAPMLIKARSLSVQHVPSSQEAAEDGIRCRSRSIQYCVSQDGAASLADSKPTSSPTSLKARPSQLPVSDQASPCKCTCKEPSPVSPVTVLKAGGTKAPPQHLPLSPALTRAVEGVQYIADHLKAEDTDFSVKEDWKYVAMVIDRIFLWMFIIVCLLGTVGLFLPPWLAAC
T1 sequence (P12390 25-500): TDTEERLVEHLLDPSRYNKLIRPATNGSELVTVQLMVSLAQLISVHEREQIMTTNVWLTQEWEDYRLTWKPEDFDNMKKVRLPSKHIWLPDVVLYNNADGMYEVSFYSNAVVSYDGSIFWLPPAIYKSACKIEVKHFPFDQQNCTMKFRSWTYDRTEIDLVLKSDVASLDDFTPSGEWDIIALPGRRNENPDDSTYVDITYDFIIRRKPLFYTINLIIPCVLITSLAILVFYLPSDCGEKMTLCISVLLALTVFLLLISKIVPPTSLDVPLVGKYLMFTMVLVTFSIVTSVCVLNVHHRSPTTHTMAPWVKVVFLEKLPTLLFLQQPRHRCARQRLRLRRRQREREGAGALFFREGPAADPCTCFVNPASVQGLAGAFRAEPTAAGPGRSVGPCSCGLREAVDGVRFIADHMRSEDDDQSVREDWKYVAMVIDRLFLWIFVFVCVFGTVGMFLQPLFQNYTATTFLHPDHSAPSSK

A word on the melting point: it is the temperature, or range, at which the solid turns liquid. For the molecule `CN[C@H]1CCN(c2cncc(C(F)(F)F)c2)C1` (as salt: hydrochloride) [Example 14, N-methyl-N-{(3S)-1-[5-(trifluoromethyl)-3-pyridinyl]pyrrolidinyl}amine hydrochloride], the melting point was 240 to 243 °C (dec.).
Same read-out and setting: for `CN[C@H]1CCCN(c2ccc(Cl)nc2)C1` (as salt: hydrochloride) [Example 46, N-[(3S)-1-(6-chloro-3-pyridinyl)piperidin-3-yl]-N-methylamine dihydrochloride] the value was 120 to 122 °C.
The term Ki denotes a measure of affinity in units of concentration, obtained from inhibition or displacement. Read a low Ki as tighter binding. On to `CN[C@@H]1CCCN(c2ccc(Cl)nc2)C1.Cl.Cl` [Example 48, N-[(3R)-1-(6-chloro-3-pyridinyl)piperidin-3-yl]-N-methylamine dihydrochloride], for which the melting point was 103 to 105 °C. In series [1], the Ki was 166 nM.
`CN[C@H]1CCCN(c2cnc(Cl)c(C)c2)C1.Cl` [Example 49, N-[(3S)-1-(6-chloro-5-methyl-3-pyridinyl)piperidin-3-yl]-N-methylamine hydrochloride]: the melting point lay in the range of 75 to 77 °C. The minimal effective dose in the series with mouse hot plate paradigm came out at 62 µmol/kg. This molecule also had a Ki in series [1] of 4.8 nM.
